This note sets out measurements from ChEMBL document CHEMBL4190240, “Conventional and microwave-assisted synthesis of new 1H-benzimidazole-thiazolidinedione derivatives: A potential anticancer scaffold” (Eur J Med Chem, 2017).

Molecules are shown by their SMILES.

The subject of one series is PC-3. In words: Cytotoxicity against human PC3 cells assessed as cell growth inhibition after 48 hrs by MTT assay. The series is classed as functional, cell-based. The note with it: PC-3, 48 h.
One may read the IC50 as the concentration needed to halve the response being measured. As for `COc1cc(OC)c(-c2nc3cc(/C=C4\SC(=O)N(Cc5cccc(C)c5)C4=O)ccc3[nH]2)cc1OC`, the IC50 is 0.63 µM.
As for `COc1cc(-c2nc3cc(/C=C4\SC(=O)N(CC(=O)N5CCCC5)C4=O)ccc3[nH]2)cc(OC)c1OC`, the IC50 was determined as 8.37 µM.
Turning to `COc1cc(OC)c(-c2nc3cc(/C=C4\SC(=O)N(CC(=O)N5CCCCC5)C4=O)ccc3[nH]2)cc1OC`, the IC50 is over 50 µM.

In another series the test system is HeLa. In words: Cytotoxicity against human HeLa cells assessed as cell growth inhibition after 48 hrs by MTT assay. Type of series: functional, cell-based.
Details: not given
(In general: Tetrazolium dyes change colour on reduction, which living cells bring about.)
With `COc1cc(OC)c(-c2nc3cc(/C=C4\SC(=O)N(Cc5cccc(C)c5)C4=O)ccc3[nH]2)cc1OC`, the IC50 worked out at 0.18 µM.
The same measure, in the same setting: under `COc1cc(-c2nc3cc(/C=C4\SC(=O)N(CC(=O)N5CCCC5)C4=O)ccc3[nH]2)cc(OC)c1OC` stands 4.78 µM; under `COc1cc(OC)c(-c2nc3cc(/C=C4\SC(=O)N(CC(=O)N5CCCCC5)C4=O)ccc3[nH]2)cc1OC`, 6.89 µM.

The subject of another series is A549. Briefly: Cytotoxicity against human A549 cells assessed as cell growth inhibition after 48 hrs by MTT assay. The series is classed as functional, cell-based. The note with it: A549, 48 h.
In the case of `COc1cc(OC)c(-c2nc3cc(/C=C4\SC(=O)N(Cc5cccc(C)c5)C4=O)ccc3[nH]2)cc1OC`, the IC50 turned out to be 0.13 µM.
With `COc1cc(-c2nc3cc(/C=C4\SC(=O)N(CC(=O)N5CCCC5)C4=O)ccc3[nH]2)cc(OC)c1OC`, the IC50 came out at 0.91 µM.
As to `COc1cc(OC)c(-c2nc3cc(/C=C4\SC(=O)N(CC(=O)N5CCCCC5)C4=O)ccc3[nH]2)cc1OC`, the IC50 was determined as 14.5 µM.

Another series relates to HT-1080. In words: Cytotoxicity against human HT1080 cells assessed as cell growth inhibition after 48 hrs by MTT assay. The series is classed as functional, cell-based. The note with it: HT-1080, 48 h.
As to `COc1cc(OC)c(-c2nc3cc(/C=C4\SC(=O)N(Cc5cccc(C)c5)C4=O)ccc3[nH]2)cc1OC`, the half-inhibitory concentration (IC50) stood at 0.19 µM.
As for `COc1cc(-c2nc3cc(/C=C4\SC(=O)N(CC(=O)N5CCCC5)C4=O)ccc3[nH]2)cc(OC)c1OC`, the half-maximal inhibitory concentration (IC50) came to 2.47 µM.
On the same count and under the same terms, under `COc1cc(OC)c(-c2nc3cc(/C=C4\SC(=O)N(CC(=O)N5CCCCC5)C4=O)ccc3[nH]2)cc1OC` stands 8.76 µM.

For a further series, the system named is HEK-293T. In words: Cytotoxicity against HEK293T cells assessed as cell growth inhibition after 48 hrs by MTT assay. Type of series: cell-based. The note with it: Homo sapiens.
For `COc1cc(OC)c(-c2nc3cc(/C=C4\SC(=O)N(Cc5cccc(C)c5)C4=O)ccc3[nH]2)cc1OC`, the IC50 stood at 3.35 µM.
On to `COc1cc(-c2nc3cc(/C=C4\SC(=O)N(CC(=O)N5CCCC5)C4=O)ccc3[nH]2)cc(OC)c1OC`, for which the half-inhibitory concentration (IC50) came out at 12.7 µM.
The same measure, in the same setting: under `COc1cc(OC)c(-c2nc3cc(/C=C4\SC(=O)N(CC(=O)N5CCCCC5)C4=O)ccc3[nH]2)cc1OC` stands over 50 µM.

A further series relates to MDA-MB-231. Briefly: Cytotoxicity against human MDA-MB-231 cells assessed as cell growth inhibition after 48 hrs by MTT assay. Type of series: functional, cell-based. The note with it: MDA-MB-231, 48 h.
`COc1cc(OC)c(-c2nc3cc(/C=C4\SC(=O)N(Cc5cccc(C)c5)C4=O)ccc3[nH]2)cc1OC`: the IC50 was found to be 1.78 µM.
`COc1cc(-c2nc3cc(/C=C4\SC(=O)N(CC(=O)N5CCCC5)C4=O)ccc3[nH]2)cc(OC)c1OC`: the half-inhibitory concentration (IC50) is 2.88 µM.
Same read-out and setting: under `COc1cc(OC)c(-c2nc3cc(/C=C4\SC(=O)N(CC(=O)N5CCCCC5)C4=O)ccc3[nH]2)cc1OC` stands over 50 µM.

Tested on in a further series: not listed separately
Briefly: Selectivity index, ratio of IC50 for HEK293T cells to IC50 for human MDA-MB-231 cells. The series is classed as toxicity. The note with it: HEK293T cells versus MDA-MB-231 cells, read-out: Ratio IC50.
For the molecule `COc1cc(OC)c(-c2nc3cc(/C=C4\SC(=O)N(Cc5cccc(C)c5)C4=O)ccc3[nH]2)cc1OC`, the selectivity ratio turned out to be 1.9.

Tested on in a further series: not listed separately
Briefly: Selectivity index, ratio of IC50 for HEK293T cells to IC50 for human PC3 cells. Type of series: toxicity. The note with it: HEK293T cells versus PC3 cells, read-out: Ratio IC50.
In the case of `COc1cc(OC)c(-c2nc3cc(/C=C4\SC(=O)N(Cc5cccc(C)c5)C4=O)ccc3[nH]2)cc1OC`, the selectivity ratio was 5.3.

Tested on in a further series: not listed separately
Briefly: Selectivity index, ratio of IC50 for HEK293T cells to IC50 for human HeLa cells. The series is classed as toxicity. The note with it: HEK293T cells versus HeLa cells, read-out: Ratio IC50.
Turning to `COc1cc(OC)c(-c2nc3cc(/C=C4\SC(=O)N(Cc5cccc(C)c5)C4=O)ccc3[nH]2)cc1OC`, the selectivity ratio came to 18.6.

Tested on in another series: not listed separately
In words: Selectivity index, ratio of IC50 for HEK293T cells to IC50 for human A549 cells. The note with it: HEK293T cells versus A549 cells, read-out: Ratio IC50. Type of series: toxicity.
Take `COc1cc(OC)c(-c2nc3cc(/C=C4\SC(=O)N(Cc5cccc(C)c5)C4=O)ccc3[nH]2)cc1OC`: the selectivity ratio turned out to be 25.8.

Tested on in the next series: not listed separately
Briefly: Selectivity index, ratio of IC50 for HEK293T cells to IC50 for human HT1080 cells. Type of series: toxicity. The note with it: HEK293T cells versus HT1080 cells, read-out: Ratio IC50.
Consider `COc1cc(OC)c(-c2nc3cc(/C=C4\SC(=O)N(Cc5cccc(C)c5)C4=O)ccc3[nH]2)cc1OC`, for which the selectivity ratio turned out to be 17.6.
